This note sets out measurements from the METLIN SMRT retention time set (Domingo-Almenara et al. 2019).

This series is described as follows: gradient 5% acetonitrile 3 min, to 50% in 2 min, to 85% in 15 min, held 3 min, 100 µL/min. The settings on record: column: Zorbax Extend-C18 2.1 x 50 mm; eluents: water / acetonitrile, 0.1% formic acid. A digest of the protocol: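 Retention time was recorded from adduct peaks, which were picked computationally and each inspected manually. Pure standards ran in mixtures of ~100 molecules on HPLC coupled to a quadrupole time-of-flight mass spectrometer, in positive and negative ionization mode, through a Zorbax Extend-C18 column (2.1 × 50 mm, 1.8 μm) at 100 μL/min. Eluents were water and acetonitrile, each with 0.1% formic acid.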
Regarding `CCOc1ncccc1CNC(=O)CC1CCCC1`, the RP-LC retention time came out at 812 s.
The figure for `O=C(CN1C(=O)CC(c2ccccc2)=Nc2cccnc21)Nc1ccc(F)cc1F` is 949 s; for `CCc1cc(=O)n(CC(=O)Nc2cc(F)ccc2C)c(N2CCOCC2)n1` it is 776 s; for `Cc1ccc(CNC(=O)C2(C)CN(S(C)(=O)=O)CC(=O)N2c2cccc(F)c2)cc1` (stereo not given) it is 818 s.
In the case of `Cc1ccc2cc(CCC(=O)NC3CCN(Cc4ccccc4)CC3)c(=O)[nH]c2c1` it was 614 s; in that of `COc1cccc(CNC(=O)c2c(C)sc3ccn(CC(C)C)c(=O)c23)c1`, 960 s.
In the case of `Cc1ccc(S(=O)(=O)N2CCc3nc[nH]c3C2)cc1` it was 591 s; in that of `CC(C)CC(=O)Nc1c(-c2ccc(F)cc2)nc2ccccn12`, 650 s.
In turn, `Cc1cc(C)cc(C(=O)Nc2cc(-c3cccnc3)no2)c1` gave an RP-LC retention time of 838 s.
In the case of `Cc1cc(NC(=O)c2nc(C(C)C)oc2C)ccc1Cl` it was 1250 s; in that of `COCCc1noc(C2Cc3ccccc3N2C(=O)Nc2cc(OC)cc(OC)c2)n1` (stereo not given), 929 s.
The figure for `FC(F)c1nc2ccccc2n1-c1nc(N2CCOCC2)nc(N2CCOCC2)n1` is 938 s.
As for `Cc1cn2c(CCC(=O)NCCOc3ccc(F)cc3)csc2n1`, the RP-LC retention time worked out at 566 s.
Compound `COCC(C)(O)CNC(=O)C(=O)NCCc1ccccc1` (stereo not given) yielded an RP-LC retention time of 660 s.
`O=C(Cc1scnc1-c1cccs1)N1CCN(c2ccccn2)CC1` had an RP-LC retention time of 596 s.
Compound `CCOc1ccccc1C(=O)n1nc(C)c(S(=O)(=O)N2CCOCC2)c1C` had an RP-LC retention time of 962 s.
In the case of `CCN1C(=O)c2ccccc2Oc2ccc(C(=O)NCCc3ccc(OC)c(OC)c3)cc21` it was 864 s.
Compound `CCN1C(=O)C2(CCN(C(=O)NC3CCCCC3)CC2)c2ccccc21` displayed an RP-LC retention time of 867 s.
The figure for `CC1CC(=O)c2cnc(N3CCN(c4ccc(F)cc4)CC3)nc2C1` (stereo not given) is 1080 s; for `CCOC(=O)c1ccc(NC(=O)Cn2cnc3nc(-c4cccnc4)ncc3c2=O)cc1` it is 686 s.
The figure for `CCc1nccn1Cc1nc(-c2cccc(Br)c2)no1` is 685 s; for `Cc1c(C2CCN(C(=O)c3ccc(Br)cc3)CC2)noc1N` it is 728 s; for `Cc1cccc(-n2c(=O)c3c(cc(C)n3C)n(CC(=O)Nc3ccc(Cl)cc3)c2=O)c1` it is 923 s.
Take `Cc1cc2c(cc1S(=O)(=O)N1CCCC1C(=O)NCc1ccc3c(c1)OCO3)OC(C)C(=O)N2` (stereo not given): the RP-LC retention time turned out to be 755 s.
`CN(C)c1cccc(-c2nc(C3CC(=O)N(c4ccc(Cl)cc4)C3)no2)c1` (stereo not given) showed an RP-LC retention time of 1110 s.
The figure for `COc1cc(NC(=O)c2cn(-c3cc(N4CCCC4)ncn3)cn2)cc(OC)c1` is 860 s.
In turn, `Cc1ccc(-n2nc(N3CCCC(C(=O)NC(C)CCc4ccccc4)C3)ccc2=O)cc1Cl` (stereo not given) showed an RP-LC retention time of 1060 s.
Turning to `CCc1nccn1Cc1nc(-c2cccc(Cl)c2)no1`, the RP-LC retention time amounted to 667 s.
Consider `Cc1nc(-c2ccc(NC(=O)N3CCN(c4ccc(F)cc4)CC3)cc2)no1`, for which the RP-LC retention time came out at 859 s.
On to `Cc1nc(-c2ccccc2)cc2nn(CC(=O)NC3CCCC3)c(=O)n12`, for which the RP-LC retention time was 865 s.
The figure for `CCNc1nc(C)cc(N2CCN(S(=O)(=O)c3cc(C)c(C)cc3C)CC2)n1` is 774 s; for `CCc1ccc(-n2nc(C)c3c(C(F)(F)F)cc(OCC(=O)N4CCCC4)nc32)cc1` it is 1220 s.
`CCC(C)NC(=O)CN1C(=O)C2CCCCN2c2ccc(S(=O)(=O)N3CCCC3)cc21` (stereo not given) registered an RP-LC retention time of 850 s.
`CCCN(C)C(=O)c1c(C)oc2c1CN(C(=O)COC)CC2` showed an RP-LC retention time of 613 s.
In the case of `O=C(Cn1cccc(-c2nc(-c3ccc(Br)cc3)no2)c1=O)Nc1ccc2c(c1)OCO2`, the RP-LC retention time came to 935 s.
In the case of `NS(=O)(=O)c1ccc(CCNC(=O)C2CCCN(c3nc4ccccc4[nH]3)C2)cc1` (stereo not given) it was 577 s.
`CC(Oc1ccccc1)C(=O)N1CCN(C(=O)c2nnn3c2COC(c2ccc(Cl)cc2)C3)CC1` (stereo not given) registered an RP-LC retention time of 972 s.
The figure for `COc1ccc(Cl)cc1S(=O)(=O)N1CCCC(C(N)=O)C1` (stereo not given) is 689 s; for `Cc1cc(C)nc(N2CCN(c3cc(C)nc4c(-c5ccc(F)cc5)cnn34)CC2)n1` it is 1190 s; for `Cc1cccc(-c2c3c(=O)n(C)c(=O)n(C)c3c3n2CCOC3c2c(C)n(C)c(=O)n(C)c2=O)c1` (stereo not given) it is 746 s.
The figure for `COc1cccc(-c2noc(Cn3c(=O)n(Cc4ccccc4)c(=O)c4sccc43)n2)c1` is 911 s.
The figure for `CCCn1c(=O)c(C)nc2cc(-c3noc(-c4ccccc4F)n3)ccc21` is 1130 s; for `Cc1ccc(CNC(=O)CCCn2nc(-n3cccc3)c3c(C)cc(C)nc32)cc1` it is 1050 s.
As for `CCC(C)NC(=O)CC1Sc2ncccc2N(C)C1=O` (stereo not given), the RP-LC retention time was 632 s.
Consider `O=C(O)c1cnc(NCc2ccncc2)nc1-c1ccccc1`, for which the RP-LC retention time worked out at 570 s.
The figure for `Cc1c(CCO)c(=O)n2n1CCCC2` is 618 s; for `CCc1nc(-c2ccc(C(=O)NC)cc2)no1` it is 690 s; for `Cc1ccc(C(C)NC(=O)c2ccc3c(c2)nc2n3CCN(C(C)C)C2=O)c(C)c1` (stereo not given) it is 786 s.
Regarding `CCCNC(=O)C1CCN(c2ccc(SCC(=O)Nc3ccc(OC)cc3)nn2)CC1`, the RP-LC retention time was found to be 611 s.
In the case of `Cn1nc(-c2nnc(-c3ccccc3)o2)c2c1CCN(S(=O)(=O)c1cccc3cccnc13)C2` it was 857 s; in that of `COC(=O)c1cc2c([nH]c1=O)CC(c1ccc(Cl)cc1)CC2=O` (stereo not given), 728 s.
The figure for `COc1ccc(NC2=NCCO2)c2c1CCCC2` is 640 s; for `O=C(NCCCn1nc(-c2ccc(F)cc2)ccc1=O)c1cccc(-n2cnnn2)c1` it is 683 s; for `Cc1cccc(-n2c(=O)c3sccc3n(Cc3nc(-c4ccc(C(C)(C)C)cc4)no3)c2=O)c1` it is 1260 s.
In the case of `O=C(NCCc1c[nH]c2ccc(Cl)cc12)c1ccc(CN2C(=O)CCn3nccc32)cc1`, the RP-LC retention time is 768 s.
The figure for `CC(CCc1ccccc1)NC(=O)c1ccc2c(c1)CCCN2S(C)(=O)=O` (stereo not given) is 935 s; for `CNC(=O)[C@@H]1CN(C(=O)Cn2c(=O)oc3ccccc32)C[C@H]1c1n[nH]c(C)n1` it is 578 s; for `CCC1CCCCN1CCCNC(=O)Cn1c(=O)c2cccn2c2ccc(F)cc21` (stereo not given) it is 641 s.
`COc1cc2nc(C(=O)N3CCCCC3)cc(Nc3ccc(Br)cc3)c2cc1OC` came in with an RP-LC retention time of 743 s.
In the case of `CCCCNC(=O)C1CCCN(c2nnc(C)c3c(C)n(-c4ccccc4)nc23)C1` (stereo not given) it was 686 s; in that of `CSc1cccc(NC(=O)C2CCCN(c3ncnc4c3nc3n4CCCCC3)C2)c1` (stereo not given), 866 s; in that of `O=C(Nc1ccc(N2CCN(C3CCCC3)C2=O)nc1)c1cccnc1`, 638 s.
`Cc1cc(C)cc(NC(=O)N2CCC(n3cnc4ccccc4c3=O)CC2)c1` registered an RP-LC retention time of 809 s.
The figure for `COC(=O)c1c(NCCO)c2cccc(Cl)c2[nH]c1=O` is 610 s; for `Clc1cc(Br)ccc1-c1ccc(CNCC2CCNCC2)o1` it is 605 s.
In the case of `COc1ncc(C(=O)NCc2ccccc2Cl)cn1`, the RP-LC retention time is 737 s.
In turn, `Cn1ccc2c(cc(C(=O)NCc3cc(F)cc(F)c3)n2C)c1=O` returned an RP-LC retention time of 701 s.
The compound `Cc1ccc(S(=O)(=O)N2C[C@@H]3CN(S(=O)(=O)c4ccccc4F)C[C@H](C2)O3)cc1` returned an RP-LC retention time of 955 s.
The compound `COc1ccc(CNC(=O)Cn2ccc3ccc(N4CCOCC4)nc32)cc1` returned an RP-LC retention time of 831 s.
In the case of `COc1ccc(OC)c(S(=O)(=O)N2CCc3nc(-c4ccccc4)ncc3C2)c1` it was 998 s; in that of `Cc1cc2nn(CC(=O)Nc3cccc(Cl)c3)c(=O)n2c(Nc2ccccc2)n1`, 1060 s; in that of `CC(C)(C)C(=O)N1CCC(C(=O)Nc2ccc(S(=O)(=O)N3CCCC3)cc2)CC1`, 792 s.
`COCc1c(C(=O)O)nnn1-c1ccc(OC)c(Cl)c1` gave an RP-LC retention time of 706 s.
Take `Cc1cc(NC(=O)CSc2nnc(CCc3nc4ccccc4[nH]3)o2)no1`: the RP-LC retention time was 553 s.
The figure for `COC(=O)c1cnc2nc(C)ccc2c1Nc1ccc(F)cc1F` is 674 s; for `O=C(Cn1ncc2c(N3CCN(c4ccccn4)CC3)ncnc21)Nc1ccccc1C(F)(F)F` it is 610 s.
The figure for `Cc1cc(C)cc(Oc2nccn3c(=O)n(CC(=O)Nc4cc(C)ccc4C)nc23)c1` is 974 s.
In the case of `CC(C)Oc1ccc(CNS(=O)(=O)c2cc3c(s2)CCN(C(=O)C2CCC2)C3)cc1` it was 1010 s.
As for `CCN1CCC2(CC1)OC(=O)C(C)=C2C(=O)NCC(C)c1ccccc1` (stereo not given), the RP-LC retention time was 630 s.
The figure for `Cc1cccc(CNC(=O)c2cc(C(C)C)n3nccc3n2)c1` is 1310 s.
